Measurements taken from EPA's ToxValDB 9.5 (doi:10.2903/j.efsa.2012.2799).

Legend:
[1] = tested on: Canidae; settings: Dog Other
[2] = tested on: Rattus norvegicus
[3] = tested on: Oryctolagus sp.
[4] = tested on: Mus musculus; settings: short-term; duration: 14 days

O=C(O)COC(=O)c1cc(Oc2ccc(C(F)(F)F)cc2Cl)ccc1[N+](=O)[O-]
NOAEL ([1]; subchronic, duration: 1 months): 60 mg/kg-day

S=C1NCCN1 [4,5-Dihydro-2-mercaptoimidazole]
NOAEL ([2]; developmental, development): 5 mg/kg-day

Cc1ccc(N=CN(C)C=Nc2ccc(C)cc2C)c(C)c1 [Amitraz]
NOAEL ([1]; chronic, duration: 2 years): 1 mg/kg-day
NOAEL ([1]; subchronic, duration: 90 days): 1 mg/kg-day

CCNc1nc(Cl)nc(NC(C)C)n1 [Atrazine]
NOAEL ([2]; reproduction developmental): 2.5 mg/kg-day

c1nc[n]([Sn]([CH]2CCCCC2)([CH]2CCCCC2)[CH]2CCCCC2)n1 [Azocyclotin]
NOAEL ([3]; reproduction developmental): 2 mg/kg-day

CC(C)N1C(=O)c2ccccc2NS1(=O)=O [Bentazone]
NOAEL ([2]; subchronic, duration: 90 days): 25 mg/kg-day

N#Cc1c(Cl)c(Cl)c(Cl)c(C#N)c1Cl [Chlorothalonil]
NOAEL ([2]; repeat dose other): 60 mg/kg-day

COC(=O)c1c(Cl)c(Cl)c(C(=O)OC)c(Cl)c1Cl [Chlorthal-dimethyl]
NOAEL ([2]; subchronic, duration: 90 days): 50 mg/kg-day

CN/C(=N\[N+](=O)[O-])NCc1cnc(Cl)s1 [Clothianidin]
NOAEL ([2]; reproduction developmental): 10 mg/kg-day
NOAEL ([3]; reproduction developmental): 10 mg/kg-day

O=C(O)C1(C(=O)Nc2ccc(Cl)cc2Cl)CC1 [Cyclanilide]
NOAEL ([3]; reproduction developmental): 3 mg/kg-day

C1CC[CH]([Sn+]([CH]2CCCCC2)[CH]2CCCCC2)CC1.[OH-] [Cyhexatin]
NOAEL ([3]; reproduction developmental): 2 mg/kg-day

CC(Oc1ccc(Oc2ccc(Cl)cc2Cl)cc1)C(=O)O (configuration not stated) [Diclofop]
NOAEL ([3]; reproduction developmental): 3 mg/kg-day

OC(c1ccc(Cl)cc1)(c1ccc(Cl)cc1)C(Cl)(Cl)Cl [Dicofol]
NOAEL ([2]; acute): 15 mg/kg-day

COC[C@H](C)N(C(=O)CCl)c1c(C)csc1C [Dimethenamid-P]
NOAEL ([2]; short-term, duration: 4 days): 25 mg/kg-day

CC1=C(C)S(=O)(=O)CCS1(=O)=O [Dimethipin]
NOAEL ([3]; reproduction developmental): 20 mg/kg-day

CC(C)(C)[C@@H](O)/C(=C\c1ccc(Cl)cc1Cl)n1cncn1 [Diniconazole-M]
NOAEL ([2]; reproduction developmental): 5 mg/kg-day

CCOP(=S)(OCC)SCCSCC [Disulfoton]
NOAEL ([2]; acute): 0.3 mg/kg-day

CCOc1ccc2c(c1)C(C)=CC(C)(C)N2 [Ethoxyquin]
NOAEL ([1]; acute): 50 mg/kg-day

CC1(c2ccc(Oc3ccccc3)cc2)OC(=O)N(Nc2ccccc2)C1=O (configuration not stated) [Famoxadone]
NOAEL [4]: 20 mg/kg-day

O=C(Nc1ccccc1)Nc1ccnc(Cl)c1 [Forchlorfenuron]
NOAEL ([3]; reproduction developmental): 100 mg/kg-day

CCOP(=O)(SC(C)CC)N1CCSC1=O (configuration not stated) [Fosthiazate]
NOAEL ([1]; chronic, duration: 1 years): 0.5 mg/kg-day
NOAEL ([1]; subchronic, duration: 90 days): 0.5 mg/kg-day

COC(=O)N(C(=O)N1CO[C@@]2(C(=O)OC)Cc3cc(Cl)ccc3C2=N1)c1ccc(OC(F)(F)F)cc1 [Indoxacarb]
NOAEL ([2]; acute): 12.5 mg/kg-day

ClC1C(Cl)C(Cl)C(Cl)C(Cl)C1Cl (configuration not stated) [Lindane]
NOAEL ([3]; developmental, development): 5 mg/kg-day

CON(C)C(=O)Nc1ccc(Cl)c(Cl)c1 [Linuron]
NOAEL ([3]; developmental, development): 10 mg/kg-day

COCC(=O)N(c1c(C)cccc1C)[C@H](C)C(=O)OC [Metalaxyl-M]
NOAEL ([2]; developmental, development): 50 mg/kg-day

COc1cccc(C(=O)NN(C(=O)c2cc(C)cc(C)c2)C(C)(C)C)c1C [Methoxyfenozide]
NOAEL ([1]; short-term, duration: 2 weeks): 20 mg/kg-day

C[n+]1ccc(-c2cc[n+](C)cc2)cc1 [Paraquat]
NOAEL ([1]; subchronic, duration: 90 days): 0.5 mg/kg-day

CCOP(=S)(OCC)Oc1ccc([N+](=O)[O-])cc1 [Parathion]
NOAEL ([2]; acute): 0.5 mg/kg-day

CCOP(=S)(OCC)SCSCC [Phorate]
NOAEL ([2]; acute): 0.3 mg/kg-day

CC12CC1(C)C(=O)N(c1cc(Cl)cc(Cl)c1)C2=O (configuration not stated) [Procymidone]
NOAEL ([2]; developmental, development): 3.5 mg/kg-day

CCCSP(=O)(OCC)Oc1ccc(Br)cc1Cl (configuration not stated) [Profenofos]
NOAEL ([2]; acute): 100 mg/kg-day

CC(C)N(C(=O)CCl)c1ccccc1 [Propachlor]
NOAEL ([3]; developmental, development): 58 mg/kg-day

COC(=O)N(OC)c1ccccc1COc1ccn(-c2ccc(Cl)cc2)n1 [Pyraclostrobin]
NOAEL ([3]; developmental, development): 3 mg/kg-day

CCNc1nc(Cl)nc(NCC)n1 [Simazine]
NOAEL ([2]; acute): 2.5 mg/kg-day

CS(=O)(=O)c1ccc(C(=O)C2C(=O)CCCC2=O)c(Cl)c1COCC(F)(F)F [Tembotrione]
NOAEL ([3]; developmental, development): 1 mg/kg-day

CCOP(=S)(OCC)SCSC(C)(C)C [Terbufos]
NOAEL ([2]; acute): 0.2 mg/kg-day

CN1COCN(Cc2cnc(Cl)s2)/C1=N/[N+](=O)[O-] [Thiamethoxam]
NOAEL ([3]; developmental, development): 50 mg/kg-day

O=C(Nc1ccccc1)Nc1cnns1 [Thidiazuron]
NOAEL ([3]; developmental, development): 25 mg/kg-day

CCN(CC)C(=O)SCc1ccc(Cl)cc1 [Thiobencarb]
NOAEL ([2]; developmental, development): 25 mg/kg-day

Cc1cc(Cl)ccc1OCCCC(=O)O [Thitrol]
NOAEL ([3]; developmental, development): 5 mg/kg-day

CCOC(=O)CSc1nc(C(C)(C)C)nn1C(=O)N(C)C [Triazamate]
NOAEL ([1]; acute): 1.5 mg/kg-day

CC(=O)[O][Sn]([c]1ccccc1)([c]1ccccc1)[c]1ccccc1 [Triphenyltin acetate]
NOAEL ([3]; reproduction developmental): 0.1 mg/kg-day

[OH-].c1cc[c]([Sn+]([c]2ccccc2)[c]2ccccc2)cc1 [Triphenyltin hydroxide]
NOAEL ([3]; reproduction developmental): 0.1 mg/kg-day

C=CC1(C)OC(=O)N(c2cc(Cl)cc(Cl)c2)C1=O (configuration not stated) [Vinclozolin]
NOAEL ([2]; developmental, development): 6 mg/kg-day
